Biological target: T1, IRAK4 (Homo sapiens, UniProt Q9NWZ3)
T1 construct: expressed in transfected cells; host or cells: THP1 (THP1-HIBiT-IRAK4 engineered line)
T1 sequence (Q9NWZ3 1-460): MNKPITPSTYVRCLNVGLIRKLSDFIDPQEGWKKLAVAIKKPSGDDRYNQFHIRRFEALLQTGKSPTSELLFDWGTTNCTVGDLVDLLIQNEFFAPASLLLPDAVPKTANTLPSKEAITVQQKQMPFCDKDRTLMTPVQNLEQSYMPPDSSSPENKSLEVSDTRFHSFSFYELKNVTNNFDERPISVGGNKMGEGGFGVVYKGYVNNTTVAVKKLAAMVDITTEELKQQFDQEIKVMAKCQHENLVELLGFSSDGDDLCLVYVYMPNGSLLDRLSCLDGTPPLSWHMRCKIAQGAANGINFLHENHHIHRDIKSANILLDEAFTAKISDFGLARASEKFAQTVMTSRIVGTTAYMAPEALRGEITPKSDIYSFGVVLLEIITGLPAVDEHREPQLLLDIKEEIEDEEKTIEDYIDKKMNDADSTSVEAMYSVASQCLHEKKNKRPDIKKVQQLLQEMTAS
Assay: HiBiT-based intracellular degradation assay of THP1-HIBiT-IRAK4 cells
Assay type: cell-based
Conditions: half-maximal degradation concentration of IRAK4 protein, 24 h incubation
Description: HiBiT-based intracellular degradation assay of THP1-HIBiT-IRAK4 cells
THP1-HIBiT-IRAK4 cells were cultured in RPMI 1640 medium supplemented with 10% fetal bovine serum (FBS) and 1% penicillin-streptomycin (PS) (37°C and 5% CO2). The THP1-HIBiT-IRAK4 cells were inoculated in a 384-well plate at 5000 cells/40 µL/well. Compound solutions with different concentrations were added at 40 nL/well and incubated for 24 h at 37°C in 5% CO2. HiBiT lysis detection reagents were added to the wells, the plate was incubated for 30 min at room temperature, and luminescence values were read on Envision. [formula]
The DC50 (half-maximal degradation concentration) of each compound was obtained using XLfit software and the following nonlinear fitting equation: Y = bottom + (top−bottom)/(1+10^(∧)((LogDC50−X)×Hillslope)). [formula]
X denotes a log value of the compound concentration.
Y denotes the degradation rate.
Table 1 lists the results of DC50 values of IRAK4 protein degradation. […]

Compound | DC50
CC(C)(O)c1cc2nc(C3CCN(CCOCCNc4cccc5c4C(=O)N(C4CCC(=O)NC4=O)C5=O)CC3)cn2cc1NC(=O)c1cccc(C(F)(F)F)n1 (centres unmarked) [Comparative Example 1, N-(2-(1-(2-(2-((2-(2,6-dioxopiperidin-3-yl)-1,3-dioxoisoindolin-4-yl)amino)ethoxy)ethyl)piperidin-4-yl)-7-(2-hydroxypropan-2-yl)imidazo[1,2-a]pyridin-6-yl)-6-(trifluoromethyl)pyridine-2-carboxamide, reference compound] | > 10000 nM
CC(C)(O)c1cc2nc(C3CCN(CCCCC#Cc4cccc5c4CN(C4CCC(=O)NC4=O)C5=O)CC3)cn2cc1NC(=O)c1cccc(C(F)(F)F)n1 (centres unmarked) [Comparative Example 2, N-(2-(1-(6-(2-(2,6-dioxopiperidin-3-yl)-1-oxoisoindolin-4-yl)hex-5-yn-1-yl)piperidin-4-yl)-7-(2-hydroxypropan-2-yl)imidazo[1,2-a]pyridin-6-yl)-6-(trifluoromethyl)pyridine-2-carboxamide, reference compound] | > 10000 nM
CC(C)(O)c1cc2nc(C3CCN(CC(=O)N4CCN(c5ccc6c(c5)C(=O)N(C5CCC(=O)NC5=O)C6=O)CC4)CC3)cn2cc1NC(=O)c1cccc(C(F)(F)F)n1 (centres unmarked) [Example 2, N-(2-(1-(2-(4-(2-(2,6-dioxopiperidin-3-yl)-1,3-dioxoisoindolin-5-yl)piperazin-1-yl)-2-oxoethyl)piperidin-4-yl)-7-(2-hydroxypropan-2-yl)imidazo[1,2-a]pyridin-6-yl)-6-(trifluoromethyl) pyridine-2-carboxamide] | 4.46 nM
CC(C)(O)c1cc2nc(C3CCN(CC4CCN(c5ccc6c(c5)CN(C5CCC(=O)NC5=O)C6=O)CC4)CC3)cn2cc1NC(=O)c1cccc(C(F)(F)F)n1 (centres unmarked) [Example 7, N-(2-(1-((1-(2-(2,6-dioxopiperidin-3-yl)-1-oxoisoindolin-5-yl)piperidin-4-yl)methyl)piperidin-4-yl)-7-(2-hydroxypropan-2-yl)imidazo[1,2-a]pyridin-6-yl)-6-(trifluoromethyl)pyridine-2-carboxamide] | 1.36 nM
COc1cc2nc(C3CCN(CC4CCN(c5ccc6c(c5)C(=O)N(C5CCC(=O)NC5=O)C6=O)CC4)CC3)cn2cc1NC(=O)c1cccc(C(F)(F)F)n1 (centres unmarked) [Example 8, N-(2-(1-((1-(2-(2,6-dioxopiperidin-3-yl)-1,3-dioxoisoindolin-5-yl)piperidin-4-yl)methyl)piperidin-4-yl)-7-methoxyimidazo[1,2-a]pyridin-6-yl)-6-(trifluoromethyl)pyridine-2-carboxamide] | 16.3 nM
CC(C)(O)c1cc2nc(C3CCN(CCN4CCN(c5ccc6c(c5)CN(C5CCC(=O)NC5=O)C6=O)CC4)CC3)cn2cc1NC(=O)c1cccc(C(F)(F)F)n1 (centres unmarked) [Example 10, N-(2-(1-(2-(4-(2-(2,6-dioxopiperidin-3-yl)-1-oxoisoindolin-5-yl)piperazin-1-yl)ethyl)piperidin-4-yl)-7-(2-hydroxypropan-2-yl)imidazo[1,2-a]pyridin-6-yl)-6-(trifluoromethyl)pyridine-2-carboxamide] | 0.51 nM
COc1cc2nc(C3CCN(CCN4CCN(c5ccc6c(c5)CN(C5CCC(=O)NC5=O)C6=O)CC4)CC3)cn2cc1NC(=O)c1cccc(C(F)(F)F)n1 (centres unmarked) [Example 12, N-(2-(1-(2-(4-(2-(2,6-dioxopiperidin-3-yl)-1-oxoisoindolin-5-yl)piperazin-1-yl)ethyl)piperidin-4-yl)-7-methoxyimidazo[1,2-a]pyridin-6-yl)-6-(trifluoromethyl)pyridine-2-carboxamide] | 1.05 nM
CC(C)(O)c1cc2nc(C3CCN(CCN4CCN(c5ccc6c(c5)C(=O)N(C5CCC(=O)NC5=O)C6)CC4)CC3)cn2cc1NC(=O)c1cccc(C(F)(F)F)n1 (centres unmarked) [Example 13, N-(2-(1-(2-(4-(2-(2,6-dioxopiperidin-3-yl)-3-oxoisoindolin-5-yl)piperazin-1-yl)ethyl)piperidin-4-yl)-7-(2-hydroxypropan-2-yl)imidazo[1,2-a]pyridin-6-yl)-6-(trifluoromethyl)pyridine-2-carboxamide] | 0.64 nM

Now from value to compound:

DC50 | Compound
13.9 nM | CC(C)(O)c1cc2nc(C3CCN(CCC(=O)N4CCN(c5ccc6c(c5)C(=O)N(C5CCC(=O)NC5=O)C6=O)CC4)CC3)cn2cc1NC(=O)c1cccc(C(F)(F)F)n1 (centres unmarked) [Example 3, N-(2-(1-(3-(4-(2-(2,6-dioxopiperidin-3-yl)-1,3-dioxoisoindolin-5-yl)piperazin-1-yl)-3-oxopropyl)piperidin-4-yl)-7-(2-hydroxypropan-2-yl)imidazo[1,2-a]pyridin-6-yl)-6-(trifluoromethyl)pyridine-2-carboxamide]
5.05 nM | CC(C)(O)c1cc2nc(C3CCN(CCCC(=O)N4CCN(c5ccc6c(c5)C(=O)N(C5CCC(=O)NC5=O)C6=O)CC4)CC3)cn2cc1NC(=O)c1cccc(C(F)(F)F)n1 (centres unmarked) [Example 4, N-(2-(1-(4-(4-(2-(2,6-dioxopiperidin-3-yl)-1,3-dioxoisoindolin-5-yl)piperazin-1-yl)-4-oxobutyl)piperidin-4-yl)-7-(2-hydroxypropan-2-yl)imidazo[1,2-a]pyridin-6-yl)-6-(trifluoromethyl)pyridine-2-carboxamide]
3.69 nM | CC(C)(O)c1cc2nc(C3CCN(CC(=O)N4CCC5(CC4)CN(c4ccc6c(c4)C(=O)N(C4CCC(=O)NC4=O)C6=O)C5)CC3)cn2cc1NC(=O)c1cccc(C(F)(F)F)n1 (centres unmarked) [Example 5, N-(2-(1-(2-(2-(2-(2,6-dioxopiperidin-3-yl)-1,3-dioxoisoindolin-5-yl)-2,7-diazaspiro[3.5]nonan-7-yl)-2-oxoethyl)piperidin-4-yl)-7-(2-hydroxypropan-2-yl)imidazo[1,2-a]pyridin-6-yl)-6-(trifluoromethyl)pyridine-2-carboxamide]
7.83 nM | CC(C)(O)c1cc2nc(C3CCN(CC(=O)N4CC5(CCN(c6ccc7c(c6)C(=O)N(C6CCC(=O)NC6=O)C7=O)CC5)C4)CC3)cn2cc1NC(=O)c1cccc(C(F)(F)F)n1 (centres unmarked) [Example 6, N-(2-(1-(2-(7-(2-(2,6-dioxopiperidin-3-yl)-1,3-dioxoisoindolin-5-yl)-2,7-diazaspiro[3.5]nonan-2-yl)-2-oxoethyl)piperidin-4-yl)-7-(2-hydroxypropan-2-yl)imidazo[1,2-a]pyridin-6-yl)-6-(trifluoromethyl)pyridine-2-carboxamide]
0.87 nM | CC(C)(O)c1cc2nc(C3CCN(CCN4CCN(c5ccc6c(c5)C(=O)N(C5CCC(=O)NC5=O)C6=O)CC4)CC3)cn2cc1NC(=O)c1cccc(C(F)(F)F)n1 (centres unmarked) [Example 9, N-(2-(1-(2-(4-(2-(2,6-dioxopiperidin-3-yl)-1,3-dioxoisoindolin-5-yl)piperazin-1-yl)ethyl)piperidin-4-yl)-7-(2-hydroxypropan-2-yl)imidazo[1,2-a]pyridin-6-yl)-6-(trifluoromethyl)pyridine-2-carboxamide]
2.23 nM | COc1cc2nc(C3CCN(CCN4CCN(c5ccc6c(c5)C(=O)N(C5CCC(=O)NC5=O)C6=O)CC4)CC3)cn2cc1NC(=O)c1cccc(C(F)(F)F)n1 (centres unmarked) [Example 11, N-(2-(1-(2-(4-(2-(2,6-dioxopiperidin-3-yl)-1,3-dioxoisoindolin-5-yl)piperazin-1-yl)ethyl)piperidin-4-yl)-7-methoxyimidazo[1,2-a]pyridin-6-yl)-6-(trifluoromethyl)pyridine-2-carboxamide]

— patent EP4748840A1, “IMIDAZO[1,2-A]PYRIDINE TYPE IRAK DEGRADATION AGENT AND USE THEREOF” (TAINUORUI (TIANJIN) BIOTECHNOLOGY CO., LTD, priority 2023, dated 2025)
